Results published in paper PMC7297664 (2020).

Columns and labels:
[1] = system: RNA 9 (canonical theophylline aptamer, Cy5) (RNA, aptamer) GGCGAUACCAGCCGAAAGGCCCUUGGCAGCGUC; test: MST binding check; settings: Na+ 150 mM (NaCl), 10 nM RNA
[2] = system: RNA 11 (8-oxoG at G26) (RNA, aptamer, 7,8-dihydro-8-oxoguanosine at 26) GGCGAUACCAGCCGAAAGGCCCUUGGCAGCGUC; test: MST binding check; settings: Na+ 150 mM (NaCl), 10 nM RNA
[3] = system: RNA 12 (8-oxoG at G11) (RNA, aptamer, 7,8-dihydro-8-oxoguanosine at 11) GGCGAUACCAGCCGAAAGGCCCUUGGCAGCGUC; test: MST binding check; settings: Na+ 150 mM (NaCl), 10 nM RNA
[4] = system: RNA 10 (8-oxoG at G25) (RNA, aptamer, 7,8-dihydro-8-oxoguanosine at 25) GGCGAUACCAGCCGAAAGGCCCUUGGCAGCGUC; test: microscale thermophoresis (MST); settings: Na+ 150 mM (NaCl); TBS pH 7.5, up to 5% DMSO; up to 1 mM; incomplete curve, solubility; abstract gives ≈160 μM
[5] = system: RNA 1 (canonical theophylline aptamer) (RNA, aptamer) GGCGAUACCAGCCGAAAGGCCCUUGGCAGCGUC; test: ITC; settings: conditions as previously reported (cited)
[6] = system: RNA 9 (canonical theophylline aptamer, Cy5) (RNA, aptamer) GGCGAUACCAGCCGAAAGGCCCUUGGCAGCGUC; test: microscale thermophoresis (MST); settings: Na+ 150 mM (NaCl); TBS: 50 mM Tris-HCl pH 7.5; 10 nM RNA; incubated in ice
[7] = system: RNA 10 (8-oxoG at G25) (RNA, aptamer, 7,8-dihydro-8-oxoguanosine at 25) GGCGAUACCAGCCGAAAGGCCCUUGGCAGCGUC; test: MST binding check; settings: Na+ 150 mM (NaCl); TBS: 50 mM Tris-HCl pH 7.5; 10 nM RNA; up to 11.25 mM
[8] = TBS pH 7.5, up to 5% DMSO, up to 1 mM
[9] = TBS: 50 mM Tris-HCl pH 7.5, up to 11.25 mM

Row | binding [1, 8] | binding [2, 8] | binding [3, 8] | Kd [4] [µM] | Kd ([5]; mean of two runs, 0.72 and 1.98 μM) [µM] | binding [3, 9] | Kd [6] [µM] | binding ([5]; printed Kd = NA) | binding [1, 9] | binding [7] | binding [2, 9] | SMILES
1 | no | no | no | > 160 | – | – | – | – | – | – | – | Cn1cnc2c1c(=O)[nH]c(=O)n2C
2 | – | – | – | – | 1.35 | no | 29 ± 35 | – | – | – | – | Cn1c(=O)c2[nH]cnc2n(C)c1=O
3 | – | – | – | – | – | no | – | no | no | no | no | Cn1c(=O)c2c(ncn2C)n(C)c1=O
